The record followed here is PubChem BioAssay AID1919008 (Molecular Pharmacology Branch, DTP, NCI, 2023).

The subject of the assay is DMS-114 complex spheroids with HUVEC/MSC, growth % test/control. Kind of assay: Anticancer human tumor DMS-114 cell line growth inhibition [AhR].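 As to all read-outs here: spheroids exposed to agents for 7 days before readout.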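 As to viability, T/C: 100% = DMSO vehicle control wells.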 To be noted: for viability, T/C: stronger effect = lower value. The essentials: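 Complex tumor spheroids co-cultured with HUVEC and human MSC stroma; AhR antagonists tested in combination with standard-of-care and investigational agents. Top concentration at or near clinical Cmax (else 10 microM), half-log dilutions; growth expressed as percent test/control.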

The mark [1] stands for this setting: curve of first compound, second compound 0.1 µM.
The mark [2] stands for this setting: curve of first compound, second compound 0.316 µM.
The mark [3] stands for this setting: curve of first compound, second compound 1 µM.
[4] abbreviates: curve of first compound, second compound 3.16 µM.
[5] abbreviates: curve of first compound, second compound 10 µM.
[6] abbreviates: second compound 0.1 µM, first compound 0.0316 µM.
Where [7] appears, read: second compound 0.1 µM, first compound 0.1 µM.
Where [8] appears, read: second compound 0.1 µM, first compound 0.316 µM.
Where [9] appears, read: second compound 0.1 µM, first compound 1 µM.
[10] abbreviates: second compound 0.1 µM, first compound 3.16 µM.
[11] abbreviates: second compound 0.1 µM, first compound 10 µM.
Setting [12] is: second compound 0.316 µM, first compound 0.0316 µM.
Where [13] appears, read: second compound 0.316 µM, first compound 0.1 µM.
Setting [14] is: second compound 0.316 µM, first compound 0.316 µM.
The mark [15] stands for this setting: second compound 0.316 µM, first compound 1 µM.
Where [16] appears, read: second compound 0.316 µM, first compound 3.16 µM.
The mark [17] stands for this setting: second compound 0.316 µM, first compound 10 µM.
Setting [18] is: second compound 1 µM, first compound 0.0316 µM.
[19] abbreviates: second compound 1 µM, first compound 0.1 µM.
Setting [20] is: second compound 1 µM, first compound 0.316 µM.
The mark [21] stands for this setting: second compound 1 µM, first compound 1 µM.
[22] abbreviates: second compound 1 µM, first compound 3.16 µM.
The mark [23] stands for this setting: second compound 1 µM, first compound 10 µM.
Setting [24] is: second compound 3.16 µM, first compound 0.0316 µM.
The mark [25] stands for this setting: second compound 3.16 µM, first compound 0.1 µM.
The mark [26] stands for this setting: second compound 3.16 µM, first compound 0.316 µM.
The mark [27] stands for this setting: second compound 3.16 µM, first compound 1 µM.
The mark [28] stands for this setting: second compound 3.16 µM, first compound 3.16 µM.
The mark [29] stands for this setting: second compound 3.16 µM, first compound 10 µM.
Where [30] appears, read: second compound 10 µM, first compound 0.0316 µM.
[31] abbreviates: second compound 10 µM, first compound 0.1 µM.
[32] abbreviates: second compound 10 µM, first compound 0.316 µM.
Where [33] appears, read: second compound 10 µM, first compound 1 µM.
[34] abbreviates: second compound 10 µM, first compound 3.16 µM.
Where [35] appears, read: second compound 10 µM, first compound 10 µM.

pIC50: −log10 of the molar value. “And” between values parts separate entries of the source, which are not always exact repeats. Identical values can stand only once.

A word on the pIC50: it is the IC50 on a negative log10 scale, so that one unit is a factor of ten. The viability, T/C is the result in the treated group divided by that in the control group, in per cent. As to `CC1(C)CCC(CN2CCN(c3ccc(C(=O)NS(=O)(=O)c4ccc(NCC5CCOCC5)c([N+](=O)[O-])c4)c(Oc4cnc5[nH]ccc5c4)c3)CC2)=C(c2ccc(Cl)cc2)C1` + Cc1ccccc1N=Nc1ccc(NC(=O)c2ccnn2C)c(C)c1, the negative logarithm of the IC50 (pIC50) by setting is: under setting [1], less than 5.00; under setting [2], less than 5.00; under setting [3], less than 5.00; under setting [4], less than 5.00; under setting [5], less than 5.00. Also, the viability, T/C by setting is: under setting [6], 103%; under setting [7], 100%; under setting [8], 112%; under setting [9], 114%; under setting [10], 120%; under setting [11], 107%. The viability, T/C by setting is: under setting [12], 120%; under setting [13], 112%; under setting [14], 105%; under setting [15], 104%; under setting [16], 117%; under setting [17], 118%. Besides, the viability, T/C is 105% under setting [18]; 107% under setting [19]; 113% under setting [20]; 111% under setting [21]; 117% under setting [22]; 102% under setting [23]. Besides, the viability, T/C was 99.8% under setting [24]; 104% under setting [25]; 103% under setting [26]; 110% under setting [27]; 114% under setting [28]; 105% under setting [29]. Moreover, the viability, T/C is 104% under setting [30]; 102% under setting [31]; 101% under setting [32]; 104% under setting [33]; 101% under setting [34]; 87.1% under setting [35].

In the case of `Nc1ccccc1NC(=O)c1ccc(CNC(=O)OCc2cccnc2)cc1`, the viability, T/C reads like this: (compound 0.0316 µM) 89.7% and 96.8% and 108%; (compound 0.1 µM) 85% and 94.1% and 92.8%; (compound 0.316 µM) 68% and 90.9% and 67.3%; (compound 1 µM) 37.8% and 74.1% and 40.4%; (compound 3.16 µM) 15.6% and 44% and 22.9%; (compound 10 µM) 8.33% and 24.4% and 14.5%. Further, the pIC50 (curve of compound) is 6.20 and 5.60 and 6.18.

For `Nc1ncn(C2CC(O)C(CO)S2)c(=O)n1` (stereo unspecified), the viability, T/C is 97.3% and 101% and 110% (compound 0.000949 µM); 108% and 102% and 116% (compound 0.003 µM); 112% and 104% and 102% (compound 0.00949 µM); 88.5% and 101% and 88.9% (compound 0.03 µM); 60.1% and 107% and 84.8% (compound 0.0949 µM); 46.1% and 86.9% and 52.9% (compound 0.3 µM). Also, where the note is “curve of compound”, the negative logarithm of the IC50 (pIC50) was 6.65 and < 6.52.

Turning to `CC1(C)CCC(CN2CCN(c3ccc(C(=O)NS(=O)(=O)c4ccc(NCC5CCOCC5)c([N+](=O)[O-])c4)c(Oc4cnc5[nH]ccc5c4)c3)CC2)=C(c2ccc(Cl)cc2)C1` + CC(CO)NC(=O)c1cc(-c2ccc(Cl)cc2)nn(-c2cnn(C)c2)c1=O, the pIC50 runs as follows: under setting [1], less than 5.00; under setting [2], less than 5.00; under setting [3], less than 5.00; under setting [4], less than 5.00; under setting [5], less than 5.00. In addition, the viability, T/C by setting is: under setting [6], 99.3%; under setting [7], 101%; under setting [8], 107%; under setting [9], 93.1%; under setting [10], 104%; under setting [11], 67.2%. For the same compound, the viability, T/C is, setting by setting: under setting [12], 95.7%; under setting [13], 114%; under setting [14], 104%; under setting [15], 87.6%; under setting [16], 92.3%; under setting [17], 73.4%. Also, the viability, T/C was 93.1% under setting [18]; 92.2% under setting [19]; 94% under setting [20]; 119% under setting [21]; 102% under setting [22]; 68.2% under setting [23]. The viability, T/C by setting is: under setting [24], 101%; under setting [25], 101%; under setting [26], 91.3%; under setting [27], 95.8%; under setting [28], 93%; under setting [29], 71.3%. The viability, T/C is 104% under setting [30]; 93% under setting [31]; 95.6% under setting [32]; 106% under setting [33]; 104% under setting [34]; 64.7% under setting [35].

Regarding `CC(C)c1c(-c2ccccc2)nc2c(C#N)c[nH]n2c1=O`, the viability, T/C is, setting by setting: (compound 0.0316 µM) 104% and 106% and 108%; (compound 0.1 µM) 117% and 104% and 101%; (compound 0.316 µM) 108% and 99.2% and 105%; (compound 1 µM) 105% (2×) and 96.3%; (compound 3.16 µM) 116% and 99.7% and 105%; (compound 10 µM) 111% and 102% (2×). The pIC50 (curve of compound) is less than 5.00.

As for `Nc1ccccc1NC(=O)c1ccc(CNC(=O)OCc2cccnc2)cc1` + CC(CO)NC(=O)c1cc(-c2ccc(Cl)cc2)nn(-c2cnn(C)c2)c1=O, the pIC50 by setting is: under setting [1], 6.13; under setting [2], 6.11; under setting [3], 6.14; under setting [4], 6.19; under setting [5], 6.09. Moreover, the viability, T/C runs as follows: under setting [6], 87.3%; under setting [7], 85.8%; under setting [8], 68.2%; under setting [9], 43.6%; under setting [10], 23.1%; under setting [11], 13.4%. Moreover, the viability, T/C is 87% under setting [12]; 89.7% under setting [13]; 76.4% under setting [14]; 42.3% under setting [15]; 20.6% under setting [16]; 13.5% under setting [17]. Also, the viability, T/C under setting [18] was 91.2%; the viability, T/C under setting [19] is 87.6%; the viability, T/C under setting [20] is 73.4%; the viability, T/C under setting [21] was 39.8%; the viability, T/C under setting [22] is 24.6%; the viability, T/C under setting [23] was 14.8%. For the same compound, the viability, T/C by setting is: under setting [24], 92.8%; under setting [25], 75.4%; under setting [26], 68.5%; under setting [27], 40.1%; under setting [28], 23.2%; under setting [29], 14.8%. For the same compound, the viability, T/C is, setting by setting: under setting [30], 90%; under setting [31], 87.7%; under setting [32], 69.2%; under setting [33], 45.8%; under setting [34], 24.9%; under setting [35], 14.4%.
